Where “and” joins values, the source holds several entries; their conditions need not be identical. Equal values may be shown once. Read-outs that look alike come from different tables or passages of the source.
How the values were obtained:
[1] = male SD rats, oral [^14C]-11c 5 mg/kg
Procedure: Following blood collection, each anesthetized animal was euthanized by CO2 inhalation and carcasses were submerged in a dry ice/hexane bath. Frozen carcasses were stored at approximately -20 °C until processed for QWBA. Duplicate aliquots of approximately 0.1 g whole blood were weighed into combustion boats for analysis by LSC. Duplicate aliquots of approximately 0.1 mL plasma were weighed into scintillation vials and mixed with an appropriate volume of scintillation cocktail for analysis by LSC. The frozen carcasses were individually set in a mold, submerged in 5% (w/v) low viscosity carboxymethylcellulose (CMC), and embedded by placing the stage (mold) in a dry ice/hexane bath. […] Sagittal, 30-µm thick sections of the CMC-embedded carcasses, including QC standards, and of the CMC-embedded calibration standards were sectioned using a Vibratome 9800 Cryomicrotome (Vibratome; St. Louis, MO) with the temperature maintained at approximately -20 °C. […] The IPs were exposed for approximately 4 days while stored at room temperature in a lead-shielded box to minimize background radiation. Digitized phosphor images (autoradioluminograms) were generated in a dark room with subdued lighting using a GE Healthcare Typhoon 7000 Phosphor Imager (Raytest GmbH; Berlin, Germany) and analyzed using AIDA software (Raytest GmbH).

[2] = tested on: HFD-fed C57BL/6J mice; experiment: DIO mice: intraperitoneal glucose tolerance test (IPGTT); assay type: in vivo, mouse; parameters: Mean Diff. (Vehicle vs. 11c), GTT blood glucose / Mean 2 (11c group), GTT blood glucose: unit not given here; conditions: for Mean Diff. (Vehicle vs. 11c), GTT blood glucose: Dunnett's multiple comparisons test; for Significant? (Vehicle vs. 11c), GTT blood glucose: Dunnett's test, alpha 0.05; for Mean 2 (11c group), GTT blood glucose: test details, mixed-effects model; for Blood Glucose Level 0 min / Blood Glucose Level 15 min / Blood Glucose Level 30 min / Blood Glucose Level 60 min / Blood Glucose Level 90 min / Blood Glucose Level 120 min / Blood Glucose Level AUC: GTT, PO
Procedure: For the glucose tolerance test, overnight fasted mice were intraperitoneally injected with 2 g/kg D-glucose (Sigma-Aldrich). Glucose concentrations were measured using a Gluco DR. TOP glucometer (Allmedicus). The AUC (area under the curve) during the GTT was calculated using GraphPad Prism 8.0 software (La Jolla, CA, USA) by the trapezoidal method.

[3] = target: 5HT3 (Homo sapiens, UniProt P46098); experiment: 5HT subtype selectivity: 5HT3; assay type: cell-based; conditions: concentration not given
Procedure: The derivatives were evaluated at a concentration of 1 μM for their antagonist activity on the 5HT2A receptor (Tables 1–3)[33],[34]. Human 5HT2A stably transfected HEK293 cells (a type of cell derived from kidney embryos)[20] were seeded in a 96-well plate (Costar; 3603) at a density of 9 × 10^4 in 100 μL of minimum essential medium (Welgene; LM007-86) containing 10% dialyzed fetal bovine serum (Gibco; 30067–334) and 1% penicillin/streptomycin (Gibco; 15140-122) and kept in a 37 °C incubator for 24 h. The cells were stained with 100 μL of cytosolic calcium dye using the FLIPR calcium 6 assay solution (Molecular devices, #R8190) supplemented with 2.5 mM probenecid (Sigma; P8761) and incubated for 1 h at 37 °C. After 1 h, the designated amount of the compound was treated in each well and incubated for another 1 h at 37 °C. Then, the cells were loaded in a Flexstation 3 microplate reader (Molecular Devices; FlexStaion) and 50 μL of 5 μM 5HT (serotonin hydrochloride, Sigma; H9523) was injected from a source plate (Nunc 96-well polystyrene conical bottom MicroWell Plate, Thermo; 249662) and the fluorescence intensity (Ex/Em-485nm/ 525 nm) was measured. (Supplementary Fig. 5) For determining the IC50 values of other 5HT subtypes, an Inhibition assay was performed by Eurofins Cerep (Study ID: FR095-0014987, FR095-0016438). […]

5HT3, sequence (P46098 24-478): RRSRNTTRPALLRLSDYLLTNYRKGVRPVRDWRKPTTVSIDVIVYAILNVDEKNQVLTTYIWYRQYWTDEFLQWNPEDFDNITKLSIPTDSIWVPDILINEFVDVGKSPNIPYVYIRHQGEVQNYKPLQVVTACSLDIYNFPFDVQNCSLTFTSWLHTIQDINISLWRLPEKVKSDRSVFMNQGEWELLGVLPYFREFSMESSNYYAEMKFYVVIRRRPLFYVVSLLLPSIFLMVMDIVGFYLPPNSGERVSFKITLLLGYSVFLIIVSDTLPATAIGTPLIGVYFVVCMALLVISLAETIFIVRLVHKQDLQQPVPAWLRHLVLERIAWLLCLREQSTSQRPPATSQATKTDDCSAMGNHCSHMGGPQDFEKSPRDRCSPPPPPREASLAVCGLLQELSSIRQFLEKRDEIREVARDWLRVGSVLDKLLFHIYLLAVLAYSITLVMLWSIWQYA

SMILES: Cc1nc2n(c(=O)c1CCN1CCC(=C3c4ccc(Cl)cc4CCc4cccnc43)CC1)CCCC2O (stereo not shown) [Compound 11c]
- AUC0-t (ng equiv./g) ([1]; Adrenal gland): 7210 ng equiv./g
- Cmax (ng equiv./g) ([1]; Adrenal gland): 1510 ng equiv./g
- Tissue: plasma ratio based on AUC0-t ([1]; Adrenal gland): 9.21
- Tmax ([1]; Adrenal gland): 6 h
- Cmax (ng equiv./g) ([1]; Brain, BQL = below the lower limit of quantitation 148 ng equiv./g): BQL
- Cmax (ng equiv./g) ([1]; Brain, BQL = below the lower limit of quantitation 148 ng equiv./g, listed as [^14C]-compound 11c): below the lower limit of quantitation
- AUC0-t (ng equiv./g) ([1]; Heart): 1800 ng equiv./g
- Cmax (ng equiv./g) ([1]; Heart): 369 ng equiv./g
- Tissue: plasma ratio based on AUC0-t ([1]; Heart): 2.30
- Tmax ([1]; Heart): 6 h
- AUC0-t (ng equiv./g) ([1]; Kidney): 7860 ng equiv./g
- Cmax (ng equiv./g) ([1]; Kidney): 1840 ng equiv./g
- Tissue: plasma ratio based on AUC0-t ([1]; Kidney): 10.0
- Tmax ([1]; Kidney): 6 h
- AUC0-t (ng equiv./g) ([1]; Large Intestine): 127000 ng equiv./g
- Cmax (ng equiv./g) ([1]; Large Intestine): 9800 ng equiv./g
- Tissue: plasma ratio based on AUC0-t ([1]; Large Intestine): 162
- Tmax ([1]; Large Intestine): 6 h
- AUC0-t (ng equiv./g) ([1]; Liver): 15400 ng equiv./g
- Cmax (ng equiv./g) ([1]; Liver): 2920 ng equiv./g
- Tissue: plasma ratio based on AUC0-t ([1]; Liver): 19.7
- Tmax ([1]; Liver): 6 h
- AUC0-t (ng equiv./g) ([1]; Lung): 4290 ng equiv./g
- Cmax (ng equiv./g) ([1]; Lung): 941 ng equiv./g
- Tissue: plasma ratio based on AUC0-t ([1]; Lung): 5.48
- Tmax ([1]; Lung): 6 h
- AUC0-t (ng equiv./g) ([1]; Pancreas): 15400 ng equiv./g
- Cmax (ng equiv./g) ([1]; Pancreas): 4330 ng equiv./g
- Tissue: plasma ratio based on AUC0-t ([1]; Pancreas): 19.7
- Tmax ([1]; Pancreas): 6 h
- AUC0-t (ng equiv./g) ([1]; Plasma): 783 ng equiv./g
- Cmax (ng equiv./g) ([1]; Plasma): 225 ng equiv./g
- Tissue: plasma ratio based on AUC0-t ([1]; Plasma): 1.00
- Tmax ([1]; Plasma): 0.5 h
- AUC0-t (ng equiv./g) ([1]; Small Intestine): 16600 ng equiv./g
- Cmax (ng equiv./g) ([1]; Small Intestine): 45000 ng equiv./g
- Tissue: plasma ratio based on AUC0-t ([1]; Small Intestine): 21.2
- Tmax ([1]; Small Intestine): 0.25 h
- AUC0-t (ng equiv./g) ([1]; Spleen): 9520 ng equiv./g
- Cmax (ng equiv./g) ([1]; Spleen): 2290 ng equiv./g
- Tissue: plasma ratio based on AUC0-t ([1]; Spleen): 12.2
- Tmax ([1]; Spleen): 6 h
- AUC0-t (ng equiv./g) ([1]; Stomach): 5130 ng equiv./g
- Cmax (ng equiv./g) ([1]; Stomach): 3240 ng equiv./g
- Tissue: plasma ratio based on AUC0-t ([1]; Stomach): 6.55
- Tmax ([1]; Stomach): 0.25 h
- AUC0-t (ng equiv./g) ([1]; Whole Blood): 589 ng equiv./g
- Cmax (ng equiv./g) ([1]; Whole Blood): 158 ng equiv./g
- Tissue: plasma ratio based on AUC0-t ([1]; Whole Blood): 0.75
- Tmax ([1]; Whole Blood): 0.5 h
- Mean Diff. (Vehicle vs. 11c), GTT blood glucose ([2]; 5mpk, 0 min): 17.89
- Significant? (Vehicle vs. 11c), GTT blood glucose ([2]; 5mpk, 0 min): No
- Mean 2 (11c group), GTT blood glucose ([2]; 5mpk, 0 min): 206.4
- Mean Diff. (Vehicle vs. 11c), GTT blood glucose ([2]; 5mpk, 15 min): -1.429
- Significant? (Vehicle vs. 11c), GTT blood glucose ([2]; 5mpk, 15 min): No
- Mean 2 (11c group), GTT blood glucose ([2]; 5mpk, 15 min): 542.4
- Mean Diff. (Vehicle vs. 11c), GTT blood glucose ([2]; 5mpk, 30 min): 41.17
- Significant? (Vehicle vs. 11c), GTT blood glucose ([2]; 5mpk, 30 min): No
- Mean 2 (11c group), GTT blood glucose ([2]; 5mpk, 30 min): 575
- Mean Diff. (Vehicle vs. 11c), GTT blood glucose ([2]; 5mpk, 60 min): 150
- Significant? (Vehicle vs. 11c), GTT blood glucose ([2]; 5mpk, 60 min): Yes
- Mean 2 (11c group), GTT blood glucose ([2]; 5mpk, 60 min): 473.2
- Mean Diff. (Vehicle vs. 11c), GTT blood glucose ([2]; 5mpk, 90 min): 176.5
- Significant? (Vehicle vs. 11c), GTT blood glucose ([2]; 5mpk, 90 min): Yes
- Mean 2 (11c group), GTT blood glucose ([2]; 5mpk, 90 min): 359.1
- Mean Diff. (Vehicle vs. 11c), GTT blood glucose ([2]; 5mpk, 120 min): 168.6
- Significant? (Vehicle vs. 11c), GTT blood glucose ([2]; 5mpk, 120 min): Yes
- Mean 2 (11c group), GTT blood glucose ([2]; 5mpk, 120 min): 270.4
- Glucose tolerance ([2]; 5 or 10 mpk, DIO mice): improved
- Mean Diff. (Vehicle vs. 11c), GTT blood glucose ([2]; 10mpk, 0 min): 40.33
- Significant? (Vehicle vs. 11c), GTT blood glucose ([2]; 10mpk, 0 min): No
- Mean 2 (11c group), GTT blood glucose ([2]; 10mpk, 0 min): 183.9
- Mean Diff. (Vehicle vs. 11c), GTT blood glucose ([2]; 10mpk, 15 min): 13.5
- Significant? (Vehicle vs. 11c), GTT blood glucose ([2]; 10mpk, 15 min): No
- Mean 2 (11c group), GTT blood glucose ([2]; 10mpk, 15 min): 527.5
- Mean Diff. (Vehicle vs. 11c), GTT blood glucose ([2]; 10mpk, 30 min): 33.08
- Significant? (Vehicle vs. 11c), GTT blood glucose ([2]; 10mpk, 30 min): No
- Mean Diff. (Vehicle vs. 11c), GTT blood glucose ([2]; 10mpk, 60 min): 136.4
- Significant? (Vehicle vs. 11c), GTT blood glucose ([2]; 10mpk, 60 min): No
- Mean 2 (11c group), GTT blood glucose ([2]; 10mpk, 60 min): 486.8
- Mean Diff. (Vehicle vs. 11c), GTT blood glucose ([2]; 10mpk, 90 min): 180.6
- Significant? (Vehicle vs. 11c), GTT blood glucose ([2]; 10mpk, 90 min): Yes
- Mean Diff. (Vehicle vs. 11c), GTT blood glucose ([2]; 10mpk, 120 min): 191.3
- Significant? (Vehicle vs. 11c), GTT blood glucose ([2]; 10mpk, 120 min): Yes
- Mean 2 (11c group), GTT blood glucose ([2]; 10mpk, 120 min): 247.7
- Blood Glucose Level 0 min ([2]; DIO mice, 5mpk, 0 min, group mean): 206.4 mg/dL
- Blood Glucose Level 0 min ([2]; DIO mice, 5mpk, 0 min, individual animals, 5 mg/kg): 241.0 mg/dL and 220.5 mg/dL and 182.0 mg/dL and 211.0 mg/dL and 157.0 mg/dL and 205.0 mg/dL and 228.0 mg/dL
- Blood Glucose Level 15 min ([2]; DIO mice, 5mpk, 15 min, group mean): 542.4 mg/dL
- Blood Glucose Level 15 min ([2]; DIO mice, 5mpk, 15 min, individual animals, 5 mg/kg): 629.0 mg/dL and 541.0 mg/dL and 509.0 mg/dL and 553.5 mg/dL and 596.5 mg/dL and 427.0 mg/dL
- Blood Glucose Level 30 min ([2]; DIO mice, 5mpk, 30 min, group mean): 575.0 mg/dL
- Blood Glucose Level 30 min ([2]; DIO mice, 5mpk, 30 min, individual animals, 5 mg/kg): 662.5 mg/dL and 628.5 mg/dL and 650.5 mg/dL and 617.5 mg/dL and 539.5 mg/dL and 470.5 mg/dL and 456.0 mg/dL
- Blood Glucose Level 60 min ([2]; DIO mice, 5mpk, 60 min, group mean): 473.2 mg/dL
- Blood Glucose Level 60 min ([2]; DIO mice, 5mpk, 60 min, individual animals, 5 mg/kg): 526.0 mg/dL and 500.0 mg/dL and 631.5 mg/dL and 438.0 mg/dL and 309.5 mg/dL and 481.5 mg/dL and 426.0 mg/dL
- Blood Glucose Level 90 min ([2]; DIO mice, 5mpk, 90 min, group mean): 359.1 mg/dL
- Blood Glucose Level 90 min ([2]; DIO mice, 5mpk, 90 min, individual animals, 5 mg/kg): 412.0 mg/dL and 393.0 mg/dL and 445.5 mg/dL and 295.0 mg/dL and 202.0 mg/dL and 352.0 mg/dL and 414.5 mg/dL
- Blood Glucose Level 120 min ([2]; DIO mice, 5mpk, 120 min, group mean): 270.4 mg/dL
- Blood Glucose Level 120 min ([2]; DIO mice, 5mpk, 120 min, individual animals, 5 mg/kg): 297.0 mg/dL and 295.0 mg/dL and 358.5 mg/dL and 219.0 mg/dL and 181.0 mg/dL and 242.5 mg/dL and 299.5 mg/dL
- Blood Glucose Level AUC ([2]; DIO mice, 5mpk, group mean): 26885.0 mg·min/dL
- Blood Glucose Level 0 min ([2]; DIO mice, 10mpk, 0 min, group mean): 183.9 mg/dL
- Blood Glucose Level 0 min ([2]; DIO mice, 10mpk, 0 min, individual animals, 10 mg/kg): 113.5 mg/dL and 200.5 mg/dL and 204.0 mg/dL and 222.5 mg/dL and 179.0 mg/dL and 184.0 mg/dL
- Blood Glucose Level 15 min ([2]; DIO mice, 10mpk, 15 min, group mean): 527.5 mg/dL
- Blood Glucose Level 15 min ([2]; DIO mice, 10mpk, 15 min, individual animals, 10 mg/kg): 483.5 mg/dL and 423.0 mg/dL and 498.0 mg/dL and 646.0 mg/dL and 555.0 mg/dL and 559.5 mg/dL
- Blood Glucose Level 30 min ([2]; DIO mice, 10mpk, 30 min, group mean): 591.4 mg/dL
- Blood Glucose Level 30 min ([2]; DIO mice, 10mpk, 30 min, individual animals, 10 mg/kg): 550.5 mg/dL and 531.0 mg/dL and 653.0 mg/dL and 657.0 mg/dL and 577.0 mg/dL and 580.0 mg/dL
- Blood Glucose Level 60 min ([2]; DIO mice, 10mpk, 60 min, group mean): 486.8 mg/dL
- Blood Glucose Level 60 min ([2]; DIO mice, 10mpk, 60 min, individual animals, 10 mg/kg): 370.0 mg/dL and 458.5 mg/dL and 558.0 mg/dL and 603.0 mg/dL and 357.5 mg/dL and 574.0 mg/dL
- Blood Glucose Level 90 min ([2]; DIO mice, 10mpk, 90 min, group mean): 365.9 mg/dL
- Blood Glucose Level 90 min ([2]; DIO mice, 10mpk, 90 min, individual animals, 10 mg/kg): 283.5 mg/dL and 422.0 mg/dL and 442.0 mg/dL and 440.5 mg/dL and 227.0 mg/dL and 380.5 mg/dL
- Blood Glucose Level 120 min ([2]; DIO mice, 10mpk, 120 min, group mean): 247.7 mg/dL
- Blood Glucose Level 120 min ([2]; DIO mice, 10mpk, 120 min, individual animals, 10 mg/kg): 170.0 mg/dL and 260.5 mg/dL and 387.0 mg/dL and 315.5 mg/dL and 148.5 mg/dL and 204.5 mg/dL
- Blood Glucose Level AUC ([2]; DIO mice, 10mpk, group mean): 28219.0 mg·min/dL
- Selectivity 3: % inhibition [3]: -1%
